Data set [1] in a line: Recovery of steroid glycoside and free steroid from intestinal contents and tissues after intragastric administration. Format: in vivo, Sprague-Dawley rats. Particulars: rat; for site of absorption of the free steroid: free steroid given orally (control experiments, FIGURE 4). As to the method: Male, Sprague-Dawley rats (ca 250 g) were maintained on laboratory rat chow and water ad lib. These rats were fasted overnight (16 hr.) prior to administration of glucoside or free steroid. Water bottles were removed from the cages at least 30 min prior to drug administration. Prednisolone glucoside, 2, (7.5 mg) or dexamethasone glucoside, 1, (7.5 mg) was administered by gastric intubation as a solution (0.5 mL) of water/95% ethanol (3:1). Prednisolone, 4, (5.25 mg) or dexamethasone, 3, (5.1 mg) was administered as a solution (0.5 mL) of water/95% ethanol (1:1). After the appropriate interval of time -3, 4, 5 or 6 hr.- the animals were sacrificed by carbon dioxide anesthesia followed by thoractomy. The small intestine and cecum were removed and cut into segments. Contents were separated from the tissues by rinsing the segments with cold, 0.9% saline (5.0 mL). The contents were immediately diluted to 30 mL with methanol. The tissues were suspended in 0.01 M KH2P04 (5.0 mL). Then an internal standard, either prednisolone, 4, or dexamethasone, 3, depending on the experimental steroid, was added to all the samples. Both the contents and tissues were then homogenized with a Polytron Homogenizer (Brinkman Inst. Co.) at med. speed for 1-2 min. The contents were then diluted to 40 mL total volume with methanol. The tissues were diluted to 25 mL total volume with methanol. All the samples were centrifuged (5,000 g, 15 min) and then the supernatant solutions were passed through membrane filters (0.45 micrometers, Versapor 800). The samples (1.4 mL) were then diluted with 0.01 M KH2PO4 (0.6 mL) and 20 microliters of the resulting solution injected directly onto the HPLC column for analysis.

Another data set in a line: physchem. It counts as physicochemical. As to the method: The partitioning of prodrugs and free steroids between n-octanol and an aqueous phase (0.01 phosphate buffer, pH 7.0) were determined at 37 °C. Both octanol and buffer were saturated with the relevant aqueous or organic phase before use. […] The intitial concentration of steroid was 10 mM dissolved in the organic phase. The amount of glycoside and free steroid in the aqueous phase at equilibrium was measured spectrophotometrically at 239 nm for the dexamethasone and fludrocortisone compounds and 242 nm for the prednisolone and hydrocortisone compounds. The concentration of glycoside or free steroid in the octanol phase was determined by difference.

A short description of data set [2]: KM(app) and Vmax determinations (Eadie-Hofstee plots). To be noted: prodrug 0.5-48 micromolar, 0.8 mL cecal homogenate, 15 min, 37 C; release of free steroid by HPLC; listed as galactoside 12. Format: in vitro ADME, rat. The protocol:
KM(app) and VMax Determinations. The KM(app)-Vmax for the hydrolysis of p-NP-glc and p-NP-gal were determined using pooled cecal homogenates (200 mL) as described above. A range of substrate (56-1000 micromolar; final volume 2.25 mL) concentrations, spanning their apparent KM, was used for each reaction. The amount of cecal homogenate used was 0.04 mL. Velocities were obtained, in duplicate, at 37 °C in a shaking water bath and the reaction stopped by addition of 0.2 N NaOH (0.25 mL) after 15 min. Release of p-nitrophenol was measured spectrophotometrically at 403 nm. Eadie-Hofstee plots were used to determine the KM(app) (micromolar) and Vmax (micromolar/min/g) of both reactions. The wet weight (g), measured immediately after removal and pooling, was used throughout.
Again, cecal contents from four rats were pooled, weighed, diluted (100 mL, 0.01 M phosphate buffer, pH 7.0) and homogenized. A range of substrate concentrations (0.5-48 micromolar, final volume 2.5 mL) spanning the apparent KM, was used for each reaction. The amount of cecal homogenate used was 0.8 mL. Reactions were run, in duplicate, at 37°C in a shaking water bath. After 15 min, the reactions were stopped by removing aliquots (0.3 mL) and quenching them with MeOH (4.7 mL). […] Again, Eadie-Hofstee plots were used to determine the KM(app) and VMax.

Data set [3] is described as follows: Rate of hydrolysis in homogenized cecal contents. Particulars: cecal contents; 1.0 mM prodrug, 37 C; release of free steroid by HPLC.
From the text: (§1) (The entire small intestine was divided into two, equal length segments to give PSI and DSI.) Gastrointestinal contents were obtained from male, Sprague-Dawley rats (300-400 g) which had been maintained on a stock diet (Purina rat chow) and water ad libitum. The intestinal contents of each section were pooled from four animals for each assay. […] Following removal, the contents were quickly weighed, then diluted to 100 milliliters (stomach, PSI, and DSI) or 200 milliliters (cecum) with cold 0.01 M phosphate buffer, pH 7.0. […] Homogenates were then stored on ice (ca 30 min). […] The reaction was run at 37 °C in a shaking water bath. The reaction was stopped after 10, 20, or 30 min by addition of 0.2 N NaOH (0.25 milliliters).
(§2) Stomach and PSI contents were diluted to 50 mL with 0.01 M phosphate buffer, pH 7.0, DSI contents to 25 mL, and cecal contents to 200 mL, prior to homogenization. The homogenates (2.1 mL of stomach, PSI, and DSI and 1.7 mL of cecum) were added to the appropriate substrate solution (0.01 M phosphate buffer, pH 7.0) to give 1.0 mM substrate in a total volume of 2.5 mL. At various times up to 30 min, aliquots (0.3 mL) were removed and quenched with MeOH (4.7 mL). After centrifugation (5,000 g, 10 min), the samples were diluted (1:1) with 0.01 M KH2PO4 and 20 microliters of the resulting solution was injected directly onto the HPLC column for analysis.
The nature of data set [4]: Rate of hydrolysis in homogenized stomach contents. Particulars: 1.0 mM prodrug, 37 C, release of free steroid by HPLC.
The nature of data set [5]: Rate of hydrolysis in homogenized distal small intestine contents. To be noted: for Sp. act. / Tot. act.: DSI contents, 1.0 mM prodrug, 37 C, release of free steroid by HPLC.
From the text: as §1, §2
The nature of data set [6]: Rate of hydrolysis in homogenized proximal small intestine contents. To be noted: PSI contents; 1.0 mM prodrug, 37 C; release of free steroid by HPLC.
The mark [7] stands for this setting: 0.01 m phosphate buffer, pH 7, Log P.

Molecules are shown by their SMILES. Like-named read-outs stand apart in the source and are kept apart here.

One may read the Log P as a log measure of how a compound divides between an organic and an aqueous phase. Read a low Log P as lower lipophilicity. As a reminder, the Km is the concentration of substrate that gives half-maximal velocity. What is called Vmax is the rate approached at saturating substrate.

As for `C[C@]12C=CC(=O)C=C1CC[C@@H]1[C@@H]2[C@@H](O)C[C@@]2(C)[C@H]1CC[C@]2(O)C(=O)CO` [Compound 4, 11 beta, 17 alpha-21-Trihydroxy-3, 20-dioxpregna-1,4-diene, reference compound], the figures for the “site of absorption of the free steroid” value in data set [1] and in data set [1] (listed as prednisolone) were “absorbed almost completely from the small intestine” and “absorbed almost exclusively from the small intestine”, respectively. Also, in data set [1] (in vivo, po), the “part of the oral dose of free steroid that reached the cecum” value is “less than 1%”. Also, in data set [1] (in vivo, po, 5 h), the “free steroid recovered in the cecum, as equivalent of the administered dose” value turned out to be 11%. In addition, the logD at 0.5 h in “physchem” (n-octanol / 0.01 M phosphate buffer pH 7.0, 37 C, agitated 30 min, read-out: Log P) amounted to 1.55.
`C[C@]12CCC(=O)C=C1CC[C@@H]1[C@@H]2[C@@H](O)C[C@@]2(C)[C@H]1CC[C@]2(O)C(=O)CO` [Compound 6, 11 beta, 17 alpha-21-Trihydroxy-3, 20-dioxopregna-4-ene]: the “Log P” value in “physchem” (n-octanol / 0.01 M phosphate buffer pH 7.0, 37 C, agitated 30 min) is recorded as 1.54.
`C[C@]12CCC(=O)C=C1CC[C@H]1[C@@H]3CC[C@](O)(C(=O)CO)[C@@]3(C)C[C@H](O)[C@@]12F` [Compound 8, 9 alpha-Fluoro-11 beta, 17 alpha-21-trihydroxy-3, 20-dioxopregna-4-ene]: the logD at 0.5 h in the data set “physchem” (setting [7]) stood at 1.73.
Take `CC12CCC(=O)C=C1CCC1C3CCC(O)(C(=O)COC4OC(CO)C(O)C(O)C4O)C3(C)CC(O)C12F` [Compound 12, 9 alpha-Fluoro-11 beta, 17 alpha-dihydroxy-3, 20-dioxopregna-4-en-21-yl beta-D-galactopyranoside]: in data set [2], the Km stood at 33.3 µM. In addition, the Vmax in data set [2] was 20.6 µM/min/g. Moreover, the Sp. act. was determined as 642 nmoles/min/g wet weight in data set [3], 7.0 nmoles/min/g wet weight in data set [4], 56.7 nmoles/min/g wet weight in data set [5] and 12.5 nmoles/min/g wet weight in data set [6]. In addition, the Tot. act. amounted to 12.9 µmol/min in data set [3], 0.01 µmol/min in data set [4], 0.80 µmol/min in data set [5] and 0.01 µmol/min in data set [6].
Turning to `CC12C=CC(=O)C=C1CCC1C2C(O)CC2(C)C1CCC2(O)C(=O)COC1OC(CO)C(OC2OC(CO)C(O)C(O)C2O)C(O)C1O` [Compound 13, 11 beta, 17 alpha-Dihydroxy-3, 20-dioxopregna-1,4-diene-21-yl beta-D-cellbioside], the logD at 0.5 h in the data set “physchem” (setting [7]) is -0.56. Moreover, the Sp. act. is recorded as 109 nmoles/min/g wet weight in data set [3], 7.5 nmoles/min/g wet weight in data set [4], 32.5 nmoles/min/g wet weight in data set [5] and 26.0 nmoles/min/g wet weight in data set [6]. The Tot. act. in data set [3] amounted to 2.2 µmol/min; in data set [4], 0.01 µmol/min; in data set [5] it was 0.64 µmol/min; in data set [6] it was 0.11 µmol/min. The “hydrolysis by DSI contents, comparison in words” value in data set [5] (homogenates of DSI contents) was “only half that of glucoside 2 and one-fourth that of galactoside 10”.

For the origin of these results see patent EP0123485A1, “Colon-specific prodrug, the preparation and uses thereof” (priority 1983, dated 1984).
